# Assay results reported in US4835100A (priority 1986, dated 1989).
# Values joined by “and” are separate entries in the source; they are usually repeats but may differ in a detail not shown here. Equal values may be shown once.
# Legend:
# [1] = system: serum antibody of mouse 1; format: binding
# [2] = system: monoclonal antibody of Groopman et al; details: cited from earlier work
# [3] = system: serum antibody of mouse 2; format: binding
# [4] = system: monoclonal antibody (2F5); format: binding, mouse
# monoclonal antibody 4E1 = details: cited from earlier work
# [5] = system: monoclonal antibody (1C6); format: binding, mouse
# [6] = system: monoclonal antibody (2F5); format: binding, mouse; remark: listed apart in the source
# [7] = system: Rabbit polyclonal anti-aflatoxin B1 antibody; details: cited from earlier work
Structure (SMILES),Percent Inhibition of serum antibody binding to solid phase [1],% Cross-reactivity 5 [2] [%],Percent Inhibition of serum antibody binding to solid phase [3],% Cross-reactivity 2 (2F5) [4] [%],% Cross-reactivity 4 (monoclonal antibody 4E1) [%],% Cross-reactivity 3 (1C6) [5] [%],% Cross-reactivity 1 (2F5) [6] [%],concentration for 50% inhibition of antibody binding in the ELISA [6] [ng/mL],% Cross-reactivity Rabbit [7] [%]
"COc1cc2c(c3oc(=O)c4c(c13)CCC4=O)[C@@H]1C=CO[C@@H]1O2 [Aflatoxin B1, aflatoxin B1]",0,100.0,44.6 and 44.3 and 28.7 and 33.6 and 23.5,100.0,100.0,100.00,100.0,2.8,100.0
"COc1cc2c(c3oc(=O)c4c(c13)CCC4=O)[C@@H]1CCO[C@@H]1O2 [Aflatoxin B2, aflatoxin B2]",–,100.0,–,0.2,12.6,6.7,4.0,70.8,131.6
"COc1cc2c(c3oc(=O)c4c(c13)CCOC4=O)[C@@H]1C=CO[C@@H]1O2 [Aflatoxin G1, aflatoxin G1]",–,5.0,–,26.6,14.3,193.0,175.0,1.6,31.2
"COc1cc2c(c3oc(=O)c4c(c13)CCOC4=O)[C@@H]1CCO[C@@H]1O2 [Aflatoxin G2, aflatoxin G2]",–,3.6,–,< 0.01,1.2,2.3,5.0,56.2,1.3
"COc1cc2c(c3oc(=O)c4c(c13)CCC4=O)[C@]1(O)C=CO[C@@H]1O2 [Aflatoxin M1, aflatoxin M1]",–,100.0,–,3.7,7.3,3.9,4.5,63.1,0
